The results in this text go back to patent US20250197387A1, “BCL-XL DEGRADERS AND USES THEREOF” (Kymera Therapeutics, Inc., priority 2021, published 2025).

Where two headings read alike, the source gives them in different places.

What all share (type): cell-based
Experiment [1] concerns the target T1, BCL-XL (Homo sapiens, UniProt Q07817).
T1 construct: endogenous in cells; host or cells: MOLT-4
Kind of experiment: BCL-XL degradation assay, western blot in MOLT-4 cells, 16 h. Particulars: western blot, MOLT-4 cells, 16 h; for Dmax: read-out: Bcl-xL WB in MOLT-4 degradation 16 h: Average Dmax %; for DC50: read-out: Bcl-xL WB in MOLT-4 degradation 16 h: Mean external-Abs DC50. The gist of the method: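 MOLT-4 cells treated with compounds at 0.02-10 μM final for 16 hr at 37° C; lysates analysed by western blot with anti-BCL-xL, beta-actin and GAPDH loading controls, infrared imaging and densitometry; DC50 and Dmax % reported as letter codes.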

A further experiment deals with MOLT-4 cells. Description: CTG (CellTiter-Glo) cell viability assay, MOLT-4. Particulars: Homo sapiens, 3 day incubation, read-out: CTG Cell Viability Assay - MOLT-4 3 day: Average external-IC50. On the procedure:
Compound-mediated viability effect on MOLT-4 and Caki-2 was quantitatively determined using the CellTiter-Glo® Luminescent Cell Viability Assay kit from Promega (Catalog number G7570) following manufacturer's recommended procedures. Briefly, MOLT-4 and Caki-2 cells were seeded into 384 well plates (Grenier Bio-One, Catalog number 781080) with a density of 10,000 cells per well. Compounds were then added to the assay plate with final top concentration of 10 μM and 1:3 dilution series with total of 9 doses. The final DMSO concentration is normalized to 0.2%. The assay plates were incubated at 37° C., for 3 days under 5% CO2. Then the assay plate was equilibrated at room temperature for 10 minutes. To determine cell viability, 30 uL CellTiter Glo reagent was added to each well and the assay plate was centrifuged at 1000 rpm for 30 second, incubated at room temperature for 10 min, and analyzed by detecting the luminescence using a multimode plate reader (EnVision 2105, PerkinElmer). The data was then analyzed by software Prism 7.0 from GraphPad and the dose response curves are fit using a three-parameter logistic equation to calculate IC50.
The letter codes for MOLT-4 IC50 include: A (<0.1 μM); B (0.1-1.0 μM); C (>1.0-3.0 μM); and D (>3.0 μM). The letter codes for Caki-2 IC50 include: A (<0.1 μM); B (0.1-1.0 μM); C (>1.0-10.0 μM); and D (>10.0 μM).
In general terms: Cellular ATP, detected with luciferase, serves as a proxy for viable cell number.

Experiment [2] concerns the target T1, BCL-XL. Description: Bcl-xL ELISA degradation in MOLT-4 cells, 6 h. Particulars: for DC50: read-out: Bcl-xL ELISA in MOLT-4 degradation 6 h: Mean external-Abs DC50. On the procedure:
The letter codes for BCL-XL DC50 include: A (<0.01 μM); B (0.01-0.1 μM); C (>[…]); D (>0.5-1.0 μM); and E (>1.0 μM). The letter codes for Dmax % include A (>75%); B (50 to 75%); C (<50%).

T1 sequence (Q07817 whole entry): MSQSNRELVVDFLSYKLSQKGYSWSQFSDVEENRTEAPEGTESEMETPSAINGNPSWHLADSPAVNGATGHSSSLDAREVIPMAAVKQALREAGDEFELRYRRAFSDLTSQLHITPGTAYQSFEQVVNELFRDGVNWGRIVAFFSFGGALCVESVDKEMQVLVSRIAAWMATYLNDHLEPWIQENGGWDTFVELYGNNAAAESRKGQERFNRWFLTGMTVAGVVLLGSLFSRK

The Dmax is the greatest extent of degradation seen. As usually defined, the DC50 is the midpoint of the concentration-degradation curve. As usually defined, the IC50 is the concentration at which inhibition is half-maximal. For the molecule `Cc1ncsc1-c1ccc(CNC(=O)[C@@H]2C[C@@H](O)CN2C(=O)[C@@H](c2cc(OCCCCCCCCC(=O)N(C)CC#Cc3ccc(OCCCc4ccc(N5CCc6cccc(C(=O)Nc7nc8ccccc8s7)c6C5)nc4C(=O)O)c(F)c3)no2)C(C)C)cc1` [I-171], at BCL-XL [1], the maximal degradation (Dmax) was in the range of 50 to 75% and the 50% degradation concentration (DC50) fell in the range of 100 to 500 nM. In addition, in the experiment on MOLT-4 cells (MOLT-4, 72 h), the 50% inhibitory concentration (IC50) is 1000 to 3000 nM.
For the molecule `Cc1cc([C@H](C(=O)N2C[C@H](O)C[C@H]2C(=O)NCc2ccc(-c3scnc3C)cc2OCC(=O)N2CCN(CC[C@H](CSc3ccccc3)Nc3ccc(S(=O)(=O)NC(=O)c4ccc(N5CCN(CC6=C(c7ccc(Cl)cc7)CCC(C)(C)C6)CC5)cc4)cc3S(=O)(=O)C(F)(F)F)CC2)C(C)C)on1` [I-134], at BCL-XL [1], the Dmax was under 50% and the half-maximal degradation concentration (DC50) is over 1000 nM. Besides, the IC50 in the experiment with MOLT-4 cells (MOLT-4, 72 h) is over 3000 nM.
For the molecule `Cc1ncsc1-c1ccc([C@H](C)NC(=O)[C@@H]2C[C@@H](O)CN2C(=O)[C@@H](NC(=O)CN(C)CCCS(=O)(=O)NC(=O)c2nc(N3CCc4cccc(C(=O)Nc5nc6ccccc6s5)c4C3)ccc2-c2cnn(CC3CCCCC3)c2C)C(C)(C)C)cc1` [I-220], on BCL-XL [2], the Dmax is over 75% and the 50% degradation concentration (DC50) was under 10 nM. The 50% inhibitory concentration (IC50) in the experiment with MOLT-4 cells (72 h) was under 100 nM.
As for `Cc1ncsc1-c1ccc([C@H](C)NC(=O)[C@@H]2C[C@@H](O)CN2C(=O)[C@@H](NC(=O)C2CCN(c3ccc(S(=O)(=O)NC(=O)c4nc(N5CCc6cccc(C(=O)Nc7nc8ccccc8s7)c6C5)ccc4-c4cccc(OC(C)C)c4C)cc3)CC2)C(C)(C)C)cc1` [I-305], on BCL-XL [2], the maximal degradation (Dmax) was under 50% and the DC50 was over 1000 nM. Also, in the experiment with MOLT-4 cells (MOLT-4, 72 h), the IC50 fell in the range of 1000 to 3000 nM.
In the same order, the values of `Cc1ncsc1-c1ccc(CNC(=O)[C@@H]2C[C@@H](O)CN2C(=O)[C@@H](NC(=O)C2(F)CC2)C(C)(C)C)c(CCCN2CCN(CC[C@H](CSc3ccccc3)Nc3ccc(S(=O)(=O)NC(=O)c4ccc(N5CCN(CC6=C(c7ccc(Cl)cc7)CCC(C)(C)C6)CC5)cc4)cc3S(=O)(=O)C(F)(F)F)CC2)c1` [I-211] are under 50%, over 1000 nM and 100 to 1000 nM.
In the same order, the values of `Cc1ncsc1-c1ccc([C@H](C)NC(=O)[C@@H]2C[C@@H](O)CN2C(=O)[C@H](c2cc(OCC3CCN(CCNC(=O)c4nc(N5CCc6cccc(C(=O)Nc7nc8ccccc8s7)c6C5)ccc4-c4cnn(CC5CCCCC5)c4C)CC3)no2)C(C)C)cc1` [I-288] are 50 to 75%, 500 to 1000 nM and 100 to 1000 nM.
The matching figures for `Cc1ncsc1-c1ccc(CNC(=O)[C@@H]2C[C@@H](O)CN2C(=O)[C@@H](NC(=O)C2(F)CC2)C(C)(C)C)c(OC2CCN(CCNC(=O)c3nc(N4CCc5cccc(C(=O)Nc6nc7ccccc7s6)c5C4)ccc3-c3cnn(CC4CCCCC4)c3C)CC2)c1` [I-215]: 50 to 75%, 100 to 500 nM and 100 to 1000 nM.
With `Cc1ncsc1-c1ccc(CNC(=O)[C@@H]2C[C@H](O)CN2C(=O)[C@@H](NC(=O)C2(F)CC2)C(C)(C)C)c(OCCCCCS(=O)(=O)NC(=O)c2nc(N3CCc4cccc(C(=O)Nc5nc6ccccc6s5)c4C3)ccc2-c2cnn(CC34CC5CC(CC(C5)C3)C4)c2C)c1` [I-290], on BCL-XL [2], the Dmax is 50 to 75% and the DC50 lay in the range of 100 to 500 nM. Besides, the IC50 in the experiment with MOLT-4 cells (MOLT-4, 72 h) was in the range of 100 to 1000 nM.
In the same order, the values of `Cc1ncsc1-c1ccc([C@H](C)NC(=O)[C@@H]2C[C@@H](O)CN2C(=O)[C@@H](NC(=O)Cc2ccc(S(=O)(=O)NC(=O)c3nc(N4CCc5cccc(C(=O)Nc6nc7ccccc7s6)c5C4)ccc3-c3cnn(CC4CCCCC4)c3C)cc2)C(C)(C)C)cc1` [I-287] are over 75%, 10 to 100 nM and 100 to 1000 nM.
In turn, `Cc1ncsc1-c1ccc(CNC(=O)[C@@H]2C[C@@H](O)CN2C(=O)[C@@H](NC(=O)C2(F)CC2)C(C)(C)C)c(OCCCCCCNCc2nc(N3CCc4cccc(C(=O)Nc5nc6ccccc6s5)c4C3)ccc2-c2cnn(CC3CCCCC3)c2C)c1` [I-222] yielded a maximal degradation (Dmax) on BCL-XL [2] of under 50%. For the same molecule, the 50% inhibitory concentration (IC50) with MOLT-4 cells (MOLT-4, 72 h) fell in the range of 1000 to 3000 nM.
On BCL-XL [2], `Cc1ncsc1-c1ccc([C@H](C)NC(=O)[C@@H]2C[C@@H](O)CN2C(=O)[C@@H](NC(=O)CCCCCCCOc2nc(N3CCc4cccc(C(=O)Nc5nc6ccccc6s5)c4C3)ccc2-c2cnn(CC3CCCCC3)c2C)C(C)(C)C)cc1` [I-218] had a Dmax of under 50%. Moreover, in the experiment with MOLT-4 cells (MOLT-4, 72 h), the concentration for half-maximal inhibition (IC50) was over 3000 nM.
Turning to `Cc1ncsc1-c1ccc(CNC(=O)[C@@H]2C[C@@H](O)CN2C(=O)[C@@H](NC(=O)C2(F)CC2)C(C)(C)C)c(OCCc2ccc(S(=O)(=O)NC(=O)c3nc(N4CCc5cccc(C(=O)Nc6nc7ccccc7s6)c5C4)ccc3-c3cnn(CC4CCCCC4)c3C)cc2)c1` [I-219], at BCL-XL [2], the Dmax is over 75% and the half-maximal degradation concentration (DC50) was 10 to 100 nM. In addition, the concentration for half-maximal inhibition (IC50) with MOLT-4 cells (MOLT-4, 72 h) is 100 to 1000 nM.
`Cc1ncsc1-c1ccc(CNC(=O)[C@@H]2C[C@@H](O)CN2C(=O)[C@@H](NC(=O)C2(F)CC2)C(C)(C)C)c(OCC2CN(C3CCC(NC(=O)c4nc(N5CCc6cccc(C(=O)Nc7nc8ccccc8s7)c6C5)ccc4-c4cnn(CC5CCCCC5)c4C)CC3)C2)c1` (some centres unmarked) [I-216]: at BCL-XL [2], the Dmax was under 50% and the DC50 is over 1000 nM. Also, in the experiment with MOLT-4 cells (MOLT-4, 72 h), the IC50 lay within 1000 to 3000 nM.
The matching figures for `Cc1ncsc1-c1ccc([C@H](C)NC(=O)[C@@H]2C[C@H](O)CN2C(=O)[C@@H](NC(=O)CCCCCS(=O)(=O)NC(=O)c2nc(N3CCc4cccc(C(=O)Nc5nc6ccccc6s5)c4C3)ccc2-c2cnn(CC34CC5CC(CC(C5)C3)C4)c2C)C(C)(C)C)cc1` [I-286]: 50 to 75%, 10 to 100 nM and 100 to 1000 nM.
The matching figures for `Cc1ncsc1-c1ccc([C@H](C)NC(=O)[C@@H]2C[C@@H](O)CN2C(=O)[C@@H](c2cc(OC3CCN([C@H]4CC[C@H](NC(=O)c5nc(N6CCc7cccc(C(=O)Nc8nc9ccccc9s8)c7C6)ccc5-c5cnn(CC6CCCCC6)c5C)CC4)CC3)no2)C(C)C)cc1` [I-313]: under 50%, over 1000 nM and 1000 to 3000 nM.
The matching figures for `Cc1ncsc1-c1ccc([C@H](C)NC(=O)[C@@H]2C[C@@H](O)CN2C(=O)[C@@H](c2cc(OCC3CCN(CCNC(=O)c4nc(N5CCc6cccc(C(=O)Nc7nc8ccccc8s7)c6C5)ccc4-c4cnn(CC5CCCCC5)c4C)CC3)no2)C(C)C)cc1` [I-289]: 50 to 75%, 10 to 100 nM and 100 to 1000 nM.
For the molecule `Cc1ncsc1-c1ccc([C@H](C)NC(=O)[C@@H]2C[C@@H](O)CN2C(=O)[C@@H](c2cc(N3CCN(c4ccc(S(=O)(=O)NC(=O)c5nc(N6CCc7cccc(C(=O)Nc8nc9ccccc9s8)c7C6)ccc5-c5cnn(CC6CCCCC6)c5C)cc4)CC3)no2)C(C)C)cc1` [I-214], on BCL-XL [2], the maximal degradation (Dmax) is over 75% and the DC50 is 10 to 100 nM. In addition, in the experiment with MOLT-4 cells (MOLT-4, 72 h), the IC50 was 100 to 1000 nM.
On to `Cc1ncsc1-c1ccc([C@H](C)NC(=O)[C@@H]2C[C@@H](O)CN2C(=O)[C@@H](NC(=O)CCCCN(C)CCCCNC(=O)c2nc(N3CCc4cccc(C(=O)Nc5nc6ccccc6s5)c4C3)ccc2-c2cnn(CC3CCCCC3)c2C)C(C)(C)C)cc1` [I-221], for which, at BCL-XL [2], the Dmax was under 50% and the DC50 was over 1000 nM. Also, in the experiment on MOLT-4 cells (MOLT-4, 72 h), the concentration for half-maximal inhibition (IC50) is over 3000 nM.
In the case of `Cc1ncsc1-c1ccc(CNC(=O)[C@@H]2C[C@@H](O)CN2C(=O)[C@@H](NC(=O)C2(F)CC2)C(C)(C)C)c(OCCCC(=O)N(C)CC[C@H](CSc2ccccc2)Nc2ccc(S(=O)(=O)NC(=O)c3ccc(N4CCN(CC5=C(c6ccc(Cl)cc6)CCC(C)(C)C5)CC4)cc3)cc2S(=O)(=O)C(F)(F)F)c1` [I-146], the IC50 with MOLT-4 cells (MOLT-4, 72 h) was 100 to 1000 nM.
